Results taken from PMC6272185 (Molecules, 2015).
≈ marks a conversion by molar mass, not a printed value. Where two headings read alike, the source gives them in different places.

Assays:
[1] = system: NO production by LPS-stimulated RAW 264.7 macrophages; test: Inhibition of NO production by LPS-stimulated macrophages (Griess); type: cell-based, murine; conditions: mean ± SD, n = 3
[2] = system: TNF-α production by LPS-stimulated RAW 264.7 macrophages; test: Inhibition of TNF-α production by LPS-stimulated macrophages (ELISA); type: cell-based, murine; conditions: for inhibition of TNF-α: LPS-stimulated RAW 264.7; for IC50: Mus musculus, read-out: IC50 TNF-α
[3] = Macrophage cytotoxicity, LDH release assay; type: cell-based, murine; conditions: mouse, RAW 264.7 macrophages stimulated with LPS; LPS-stimulated RAW 264.7, LDH release; mean ± SD, n = 3
M. bovis BCG = test: microbe, parasite or virus in culture; type: cell-based, Mycobacterium bovis BCG; conditions: for MIC50 / MIC90: Mycobacterium tuberculosis variant bovis BCG, BCG, 168 h; for MIC50: read-out: MIC50 M. bovis BCG; for MIC90: read-out: MIC90 M. bovis BCG
[4] = system: IL-1β production by LPS-stimulated RAW 264.7 macrophages; test: Inhibition of IL-1β production by LPS-stimulated macrophages (ELISA); type: cell-based, murine; conditions: for inhibition of IL-1β: LPS-stimulated RAW 264.7; for IC50: Mus musculus, RAW264.7, 24 h, read-out: IC50 IL-1β
Protocol: (§1) Murine RAW 264.7 macrophage cell line (American Type Culture Collection, Manassas, VA, USA), was cultured in Dulbecco’s modified Eagle’s medium (DMEM-F12) supplemented with 10% Fetal Bovine Serum (FBS) and gentamicin (50 µg/mL) in 5% CO2 atmosphere at 37 °C. For experiments, the cells were seeded in 96-well plates (1 × 10^5 cells/well) and incubated for 24 h at 37 °C. For macrophage stimulation, the cell cultures were treated with LPS (1 µg/mL) and incubated for additional 24 h in the presence or absence of the chalcone samples (samples 1–41) that were used at concentrations of 100, 20, 4 and 0.8 µg/mL. In some experiments, a nitric oxide (NO) inhibitor, L-NMMA (20 μg/mL), was used as a positive control of NO inhibition, and a non-steroidal anti-inflammatory drug indomethacin, known to inhibit production of prostaglandins, was used as a positive control of PGE2 inhibition.
(§2) The frozen culture supernatants samples were thawed and immediately analyzed using commercially available enzyme-linked immunosorbent assay (ELISA) kits to measure TNF-α, IL-1β (BD Biosciences) and PGE2 (R&D Systems, Minneapolis, MN, USA), according to the manufacturer’s instructions. Standard curves for each mediator were generated using reference cytokine concentrations supplied by the manufacturer. Nitric oxide (NO) generation was assessed by the Griess method to measure nitrites, which are stable breakdown NO products.

[5] = system: PGE2 production by LPS-stimulated RAW 264.7 macrophages; test: Inhibition of PGE2 production by LPS-stimulated macrophages (ELISA); type: cell-based, murine; conditions: Mus musculus, RAW264.7, 24 h, read-out: IC50 PGE2
Protocol: as §1, §2

[6] = system: iNOS expression in RAW 264.7 macrophages; test: iNOS expression by western blot in LPS-stimulated macrophages; type: cell-based, murine; conditions: 20 µg/mL, LPS 1 µg/mL, 24 h
Protocol: RAW 264.7 macrophages were plated in Petri dishes (2 × 10^7 cells·mL^−1) and incubated for 24 h at 37 °C in 5% CO2 atmosphere. […] The resulted cellular monolayers were washed with PBS 1×, scraped and resuspended in PBS 1×, transferred and centrifuged to obtain cell pellets. The cells were lysed in buffer (10% SDS, 20% glycerol, 5% 2-mercaptoethanol, 2% bromophenol blue and 1 M Tris HCl, pH 6.8, containing protease inhibitors). Protein concentrations were estimated by Bradford method. For western blot analysis, cellular extract samples (60 µg) were submitted to 10% SDS–polyacrylamide gel electrophoresis under […] conditions and transferred to nitrocellulose membranes (Amersham Pharmacia Biotech, Uppsala, Sweden). After blocking with PBS-T (0.5% Tween-20) containing 2.5% (w/v) bovine serum albumin, the membranes were incubated with antibodies against iNOS (1:1000) and COX-2 (1:500) for 1 h at room temperature. After incubation period, the membranes were washed followed by treatment with horseradish peroxidase-conjugated secondary antibody. The resulting membranes were developed using diaminobenzidine/H2O2 as a substrate for peroxidase. In all electrophoresis experiments, a protein standard ladder (Full Range Rainbow-GE Healthcare, Piscataway, NJ, USA) was used to estimate proteins molecular size. Protein bands densitometric analysis was performed using ImageJ software for Windows (NIH, Bethesda, MD, USA). The value for stimulated condition (LPS- treated cells) was set as 1 and other conditions were recalculated correspondingly to allow ratio comparisons.

M. tuberculosis H37Rv = test: microbe, parasite or virus in culture; type: cell-based, Mycobacterium tuberculosis; conditions: Mycobacterium tuberculosis
M. tuberculosis M299 = test: microbe, parasite or virus in culture; type: cell-based, Mycobacterium tuberculosis; conditions: for MIC50 / MIC90: Mycobacterium tuberculosis, M299, 120 h
[7] = system: M. tuberculosis strain H37Rv in RAW 264.7 macrophages; test: Intracellular growth of M. tuberculosis H37Rv in infected macrophages (CFU); type: cell-based, Mycobacterium tuberculosis; conditions: infected RAW 264.7, MOI 1:1, 4 days, Figure 3C; for MIC50: Mycobacterium tuberculosis, H37RV, 96 h
Protocol: (§3) RAW 264.7 macrophages were plated (1 × 10^5 cells/well) in antibiotic-free DMEM-F12 medium supplemented with 10% fetal bovine serum and incubated for 24 h. Prior to infection, mycobacterial suspensions were sonicated for 1 minute to disperse clumps and optical densities were adjusted to 0.1. The macrophage cultures were infected at a MOI of 1:1 (macrophage: bacterium). Phagocytosis was allowed to progress for 3 h. After 3 h, extracellular mycobacteria were removed by washing with PBS 1X and the infected cell monolayers were treated for 4 days with chalcone samples or rifampicin. Macrophage viability was monitored by LDH assay and was over 80% in all experiments. On day 4 after infection, cells were lysed cells with 1% saponin to release intracellular bacteria. Lysate aliquots were diluted 10-fold in PBS, plated in triplicates on 7H10 agar plates and incubated at 37 °C. After 21 days, total CFU were determined.

[8] = system: RAW 264.7 macrophages infected with M. tuberculosis H37Rv; test: Toxicity for infected macrophages, LDH assay; type: cell-based, murine; conditions: Mus musculus, RAW264.7, 96 h; infected RAW 264.7, 4 days treatment; Figure 3D
Protocol: Cytotoxic effects of chalcone samples on RAW 264.7 cell viability in cultures stimulated with LPS were determined using the LDH (lactate dehydrogenase) release assay as previously described. Cytoplasmic enzyme LDH release into cell culture supernatants was detected using a commercial LDH kit (Doles, GO, Brazil). Cell death was expressed as percentage of LDH release, which was calculated using the following formula: percentage of LDH release = 100 × (test LDH release − spontaneous release)/(maximum release − spontaneous release). The maximum release was determined following dissolution of cell monolayers using 1% (vol/vol) Triton X-100. The spontaneous release was determined in supernatants from cultures incubated in the presence of LPS and DMSO, used as a solvent for chalcone samples.
as §3

RAW 264.7 macrophages = test: Macrophage cytotoxicity, LDH release assay; type: cell-based, murine; conditions: LDH release
[9] = LPS (1 µg/mL)-stimulated RAW 264.7, 24 h, read-out: IC50 NO
[10] = Mus musculus, RAW264.7, 24 h, read-out: IC50 NO, LPS (1 µg/mL)-stimulated RAW 264.7, 24 h
[11] = RAW264.7, LPS (1 µg/mL)-stimulated RAW 264.7, 24 h, mean ± SD, n = 3
[12] = H37RV, 120 h, read-out: MIC50 M. tuberculosis H37Rv
[13] = Table 5, same values as M. tuberculosis H37Rv in Table 3, read-out: MIC50
[14] = Mus musculus, RAW264.7, 24 h, LPS (1 µg/mL)-stimulated RAW 264.7, 24 h, read-out: IC50 NO

SMILES	IC50 [1, 10]	IC50 [2, 11]	IC50 [3]	MIC50 (M. bovis BCG)	MIC90 (M. bovis BCG)	IC50 [4]	IC50 [5]	MIC90 (M. tuberculosis H37Rv; H37RV, 120 h)	MIC50 (M. tuberculosis H37Rv; [12])	MIC50 (M. tuberculosis H37Rv; [13])	MIC50 (M. tuberculosis M299)	MIC90 (M. tuberculosis M299)	MIC50 [7]	IC50 [8]	IC50 [1, 14]	other results
CN(C)c1ccc(/C=C/C(=O)c2ccccc2)cc1 [Chalcone 4]	< 21 µM	66.9 ± 4.3 µM	348 ± 5.1 µM	14.3 ± 5.8 µM (≈ 3.59 µg/mL)	137 ± 7.9 µM (≈ 34.5 µg/mL)	116 ± 5.5 µM	61.2 ± 0.5 µM	320 ± 4.8 µM (≈ 80.5 µg/mL)	19.7 ± 1.9 µM (≈ 4.95 µg/mL)	19.7 ± 1.9 µM (≈ 4.95 µg/mL)	20.1 ± 1 µM (≈ 5.05 µg/mL)	351.5 ± 1.8 µM (≈ 88.3 µg/mL)	4.2 ± 0.3 µM (≈ 1.06 µg/mL)	374 ± 6.3 µM	–	IC50 [1, 9]: 12 ± 2.2 µM; inhibition of TNF-α [2]: strongly inhibit; inhibition of IL-1β [4]: potent inhibitors; inhibition of iNOS expression [6]: almost completely inhibit; MIC50 intracellular M. tuberculosis H37Rv [7]: 4.2 ± 0.3 µM (≈ 1.06 µg/mL)
O=C(/C=C/c1ccccc1)c1ccc(Br)cc1 [Chalcone 8]	–	66.9 ± 4.5 µM	191 ± 5.2 µM	13.4 ± 4 µM (≈ 3.85 µg/mL)	33.7 ± 4.6 µM (≈ 9.68 µg/mL)	–	–	326 ± 3.3 µM (≈ 93.6 µg/mL)	10.5 ± 3.8 µM (≈ 3.02 µg/mL)	10.5 ± 3.8 µM (≈ 3.02 µg/mL)	10.2 ± 4.9 µM (≈ 2.93 µg/mL)	344.7 ± 0.4 µM (≈ 99 µg/mL)	13.5 ± 0.6 µM (≈ 3.88 µg/mL)	66.1 ± 1.5 µM	46.4 ± 2.3 µM	MIC90 M. bovis BCG (M. bovis BCG; culture, 7 days, MTT): 33.7 ± 4.6 µM (≈ 9.68 µg/mL)
O=C(/C=C/c1ccc(F)cc1)c1ccc(Br)cc1 [Chalcone 9]	–	> 328 µM	> 328 µM	35.8 ± 3.9 µM (≈ 10.9 µg/mL)	309 ± 5.3 µM (≈ 94.2 µg/mL)	–	–	252 ± 2.7 µM (≈ 76.9 µg/mL)	24.4 ± 4.5 µM (≈ 7.45 µg/mL)	24.4 ± 4.5 µM (≈ 7.45 µg/mL)	53.6 ± 1.9 µM (≈ 16.3 µg/mL)	313 ± 1.4 µM (≈ 95.5 µg/mL)	12 ± 1.1 µM (≈ 3.66 µg/mL)	> 321 µM	> 328 µM	–
O=C(/C=C/c1ccc(Cl)cc1)c1ccc(Br)cc1 [Chalcone 10]	–	> 311 µM	113.4 ± 0.5 µM	22.3 ± 6.3 µM (≈ 7.17 µg/mL)	288 ± 3.2 µM (≈ 92.6 µg/mL)	–	–	–	–	–	–	–	–	–	68.9 ± 4.3 µM	cytotoxicity profile (RAW 264.7 macrophages): worst cytotoxicity profiles
O=C(/C=C/c1ccccc1Cl)c1ccc(Br)cc1 [Chalcone 15]	36.7 µM	–	256 ± 3.8 µM	13.8 ± 4.4 µM (≈ 4.44 µg/mL)	265 ± 4.5 µM (≈ 85.3 µg/mL)	> 311 µM	32.8 ± 3.7 µM	288 ± 5.5 µM (≈ 92.6 µg/mL)	17.1 ± 3.8 µM (≈ 5.5 µg/mL)	17.1 ± 3.8 µM (≈ 5.5 µg/mL)	> 311 µM	> 311 µM	242 ± 4.4 µM (≈ 77.9 µg/mL)	214 ± 2.5 µM	–	IC50 ([2]; RAW264.7, 24 h): > 311 µM; activity against M299 compared with H37Rv (M. tuberculosis M299): significantly less potent
COc1ccc(C(=O)/C=C/c2ccccc2)cc1 [Chalcone 24]	< 21 µM	78.8 ± 6.5 µM	245 ± 4.5 µM	31.5 ± 5.9 µM (≈ 7.51 µg/mL)	399 ± 6.9 µM (≈ 95.1 µg/mL)	56.6 ± 3.5 µM	90 ± 3.4 µM	375 ± 6.8 µM (≈ 89.3 µg/mL)	25.3 ± 5.2 µM (≈ 6.03 µg/mL)	25.3 ± 5.2 µM (≈ 6.03 µg/mL)	> 420 µM	> 420 µM	42.6 ± 3.1 µM (≈ 10.2 µg/mL)	319 ± 4.6 µM	–	IC50 [1, 9]: 21.3 ± 4.5 µM; inhibition of TNF-α [2]: strongly inhibit; inhibition of IL-1β [4]: potent inhibitors; activity against M299 compared with H37Rv (M. tuberculosis M299): significantly less potent
COc1ccc(C(=O)/C=C/c2ccc(F)cc2)cc1 [Chalcone 25]	–	> 390 µM	> 390 µM	15.8 ± 5.2 µM (≈ 4.05 µg/mL)	228 ± 5.8 µM (≈ 58.5 µg/mL)	> 390 µM	57.5 ± 2.1 µM	366.1 ± 3.6 µM (≈ 93.8 µg/mL)	25.1 ± 5.2 µM (≈ 6.43 µg/mL)	25.1 ± 5.2 µM (≈ 6.43 µg/mL)	18.5 ± 3.6 µM (≈ 4.74 µg/mL)	366.9 ± 0.3 µM (≈ 94 µg/mL)	49.1 ± 1.7 µM (≈ 12.6 µg/mL)	264 ± 4.4 µM	41.2 ± 4.6 µM	–
O=C(/C=C/c1ccc(Cl)cc1)c1ccccc1Cl [Chalcone 33]	–	166 ± 5.2 µM	351 ± 5 µM	45.7 ± 5.4 µM (≈ 12.7 µg/mL)	> 361 µM	287 ± 3.6 µM	75.1 ± 3.5 µM	356 ± 4.9 µM (≈ 98.6 µg/mL)	36.9 ± 4.5 µM (≈ 10.2 µg/mL)	36.9 ± 4.5 µM (≈ 10.2 µg/mL)	–	–	248 ± 3.7 µM (≈ 68.7 µg/mL)	271.7 ± 2.7 µM	–	inhibition of iNOS expression [6]: almost completely inhibit
